Test results as given in PubChem BioAssay AID1259407 (Chemical Carcinogenesis Research Information System (CCRIS), 2018).
The source made the active and inactive calls. No rule for the calls is given here.

System: CCRIS mutagenicity, Ames/micronucleus/aberration tests
Assay: CCRIS mutagenicity studies
[1] = Test System: AMES SALMONELLA TYPHIMURIUM, Strain/Indicator: TA98, Metabolic Activation: NONE, Method: PREINCUBATION
[2] = Test System: AMES SALMONELLA TYPHIMURIUM, Strain/Indicator: TA98, Metabolic Activation: NONE, Method: STANDARD PLATE
[3] = Test System: AMES SALMONELLA TYPHIMURIUM, Strain/Indicator: TA98, Metabolic Activation: RAT, LIVER, S-9, AROCLOR 1254, Method: STANDARD PLATE
[4] = Test System: AMES SALMONELLA TYPHIMURIUM, Strain/Indicator: TA100, Metabolic Activation: NONE, Method: STANDARD PLATE
[5] = Test System: AMES SALMONELLA TYPHIMURIUM, Strain/Indicator: TA100, Metabolic Activation: RAT, LIVER, S-9, AROCLOR 1254, Method: STANDARD PLATE
[6] = Test System: AMES SALMONELLA TYPHIMURIUM, Strain/Indicator: TA1535, Metabolic Activation: NONE, Method: STANDARD PLATE
[7] = Test System: AMES SALMONELLA TYPHIMURIUM, Strain/Indicator: TA1537, Metabolic Activation: NONE, Method: STANDARD PLATE
[8] = Test System: AMES SALMONELLA TYPHIMURIUM, Strain/Indicator: TA1538, Metabolic Activation: NONE, Method: STANDARD PLATE

O[C@@H]1[C@@H]2O[C@@H]2C=C[C@H]1O
mutagenic call (Test System: AMES SALMONELLA TYPHIMURIUM, Strain/Indicator: TA97, Metabolic Activation: NONE, Method: PREINCUBATION): inactive; negative | mutagenic call [1]: inactive; negative | mutagenic call (Test System: AMES SALMONELLA TYPHIMURIUM, Strain/Indicator: TA1535, Metabolic Activation: NONE, Method: PREINCUBATION): active; positive

O=C1CNC(=O)N1
mutagenic call (Test System: AMES SALMONELLA TYPHIMURIUM, Strain/Indicator: TA97, Metabolic Activation: NONE, Method: STANDARD PLATE): inactive; negative | mutagenic call (Test System: AMES SALMONELLA TYPHIMURIUM, Strain/Indicator: TA97, Metabolic Activation: RAT, LIVER, S-9, AROCLOR 1254, Method: STANDARD PLATE): inactive; negative | mutagenic call [2]: inactive; negative | mutagenic call [3]: inactive; negative | mutagenic call [4]: inactive; negative | mutagenic call [5]: inactive; negative | mutagenic call (Test System: AMES SALMONELLA TYPHIMURIUM, Strain/Indicator: TA102, Metabolic Activation: NONE, Method: STANDARD PLATE): inactive; negative | mutagenic call (Test System: AMES SALMONELLA TYPHIMURIUM, Strain/Indicator: TA102, Metabolic Activation: RAT, LIVER, S-9, AROCLOR 1254, Method: STANDARD PLATE): inactive; negative

C=CC(=O)OCCCCCC
mutagenic call [2]: inactive; negative | mutagenic call [3]: inactive; negative | mutagenic call (Test System: AMES SALMONELLA TYPHIMURIUM, Strain/Indicator: TA98, Metabolic Activation: RAT, LIVER, S-9, SODIUM PHENOBARBITAL, Method: STANDARD PLATE): inactive; negative | mutagenic call (Test System: AMES SALMONELLA TYPHIMURIUM, Strain/Indicator: TA100, Metabolic Activation: NONE, Method: PREINCUBATION): inactive; negative | mutagenic call [4]: inactive; negative | mutagenic call (Test System: AMES SALMONELLA TYPHIMURIUM, Strain/Indicator: TA100, Metabolic Activation: RAT, LIVER, S-9, AROCLOR 1254, Method: PREINCUBATION): inactive; negative | mutagenic call [5]: inactive; negative | mutagenic call (Test System: AMES SALMONELLA TYPHIMURIUM, Strain/Indicator: TA100, Metabolic Activation: RAT, LIVER, S-9, SODIUM PHENOBARBITAL, Method: STANDARD PLATE): inactive; negative | mutagenic call [6]: inactive; negative | mutagenic call (Test System: AMES SALMONELLA TYPHIMURIUM, Strain/Indicator: TA1535, Metabolic Activation: RAT, LIVER, S-9, AROCLOR 1254, Method: STANDARD PLATE): inactive; negative | mutagenic call (Test System: AMES SALMONELLA TYPHIMURIUM, Strain/Indicator: TA1535, Metabolic Activation: RAT, LIVER, S-9, SODIUM PHENOBARBITAL, Method: STANDARD PLATE): inactive; negative | mutagenic call [7]: inactive; negative | mutagenic call (Test System: AMES SALMONELLA TYPHIMURIUM, Strain/Indicator: TA1537, Metabolic Activation: RAT, LIVER, S-9, AROCLOR 1254, Method: STANDARD PLATE): inactive; negative | mutagenic call (Test System: AMES SALMONELLA TYPHIMURIUM, Strain/Indicator: TA1537, Metabolic Activation: RAT, LIVER, S-9, SODIUM PHENOBARBITAL, Method: STANDARD PLATE): inactive; negative | mutagenic call [8]: inactive; negative | mutagenic call (Test System: AMES SALMONELLA TYPHIMURIUM, Strain/Indicator: TA1538, Metabolic Activation: RAT, LIVER, S-9, AROCLOR 1254, Method: STANDARD PLATE): inactive; negative | mutagenic call (Test System: AMES SALMONELLA TYPHIMURIUM, Strain/Indicator: TA1538, Metabolic Activation: RAT, LIVER, S-9, SODIUM PHENOBARBITAL, Method: STANDARD PLATE): inactive; negative

CCCC(=O)Nc1snc2ccccc12
mutagenic call [4]: inactive; negative | mutagenic call (Test System: AMES SALMONELLA TYPHIMURIUM, Strain/Indicator: TA100, Metabolic Activation: S-9, Method: STANDARD PLATE): inactive; negative

CC(=O)N(O)c1ccc(-c2ccccc2)cc1
mutagenic call (Test System: AMES SALMONELLA TYPHIMURIUM, Strain/Indicator: TA98(1,8-DNP6), Metabolic Activation: HUMAN, UROEPITHELIAL CELL, MICROSOMES, Method: PREINCUBATION): inactive; negative | mutagenic call (Test System: AMES SALMONELLA TYPHIMURIUM, Strain/Indicator: TA98(1,8-DNP6), Metabolic Activation: NONE, Method: PREINCUBATION): inactive; negative | mutagenic call (Test System: AMES SALMONELLA TYPHIMURIUM, Strain/Indicator: TA98(1,8-DNP6), Metabolic Activation: RAT, LIVER, S-9, AROCLOR, Method: PREINCUBATION): active; positive | mutagenic call (Test System: AMES SALMONELLA TYPHIMURIUM, Strain/Indicator: TA98, Metabolic Activation: DOG, BLADDER, MICROSOMES, Method: PREINCUBATION): active; positive | mutagenic call (Test System: AMES SALMONELLA TYPHIMURIUM, Strain/Indicator: TA98, Metabolic Activation: DOG, LIVER, MICROSOMES, Method: PREINCUBATION): active; positive | mutagenic call (Test System: AMES SALMONELLA TYPHIMURIUM, Strain/Indicator: TA98, Metabolic Activation: HUMAN, UROEPITHELIAL CELL, CYTOSOL, Method: PREINCUBATION): active; positive | mutagenic call (Test System: AMES SALMONELLA TYPHIMURIUM, Strain/Indicator: TA98, Metabolic Activation: HUMAN, UROEPITHELIAL CELL, MICROSOMES, Method: PREINCUBATION): active; positive | mutagenic call (Test System: AMES SALMONELLA TYPHIMURIUM, Strain/Indicator: TA98, Metabolic Activation: HUMAN, UROEPITHELIAL CELL, S-9, Method: PREINCUBATION): active; positive | mutagenic call [1]: inactive; negative | mutagenic call (Test System: AMES SALMONELLA TYPHIMURIUM, Strain/Indicator: TA98, Metabolic Activation: RAT, BLADDER, MICROSOMES, Method: PREINCUBATION): inactive; negative | mutagenic call (Test System: AMES SALMONELLA TYPHIMURIUM, Strain/Indicator: TA98, Metabolic Activation: RAT, LIVER, CYTOSOL, Method: PREINCUBATION): active; positive | mutagenic call (Test System: AMES SALMONELLA TYPHIMURIUM, Strain/Indicator: TA98, Metabolic Activation: RAT, LIVER, MICROSOMES, Method: PREINCUBATION): active; positive | mutagenic call (Test System: AMES SALMONELLA TYPHIMURIUM, Strain/Indicator: TA98, Metabolic Activation: RAT, LIVER, S-9, AROCLOR, Method: PREINCUBATION): active; positive | mutagenic call (Test System: AMES SALMONELLA TYPHIMURIUM, Strain/Indicator: YG1024, Metabolic Activation: HUMAN, UROEPITHELIAL CELL, MICROSOMES, Method: PREINCUBATION): active; positive | mutagenic call (Test System: UDS HUMAN FIBROBLASTS, Strain/Indicator: THY INCORP (NON-S-PHASE), Metabolic Activation: NONE, Method: AUTORADIOGRAPHY): active; positive

CCN(CCCl)CCCNc1c2ccc(Cl)cc2nc2ccc(OC)nc12
mutagenic call [2]: active; positive | mutagenic call [4]: active; positive | mutagenic call [6]: inactive; negative | mutagenic call (Test System: AMES SALMONELLA TYPHIMURIUM, Strain/Indicator: TA1536, Metabolic Activation: NONE, Method: STANDARD PLATE): active; positive | mutagenic call [7]: active; positive | mutagenic call [8]: active; positive

c1ccc(Cc2ccc(OCC3CO3)cc2)cc1 (stereo not given)
mutagenic call [4]: active; positive | mutagenic call [6]: active; positive

Cc1ccc(NC2OC[C@@H](O)[C@H](O)[C@H]2O)cc1 (stereo not given in full)
mutagenic call (Test System: AMES SALMONELLA TYPHIMURIUM, Strain/Indicator: TA100, Metabolic Activation: NONE, Method: LIQUID INCUBATION): active; positive

CCN1CCN=N1
mutagenic call [6]: active; positive
